This note sets out measurements from US20230131427A1, “FUNGICIDAL COMPOSITIONS” (SYNGENTA CROP PROTECTION AG, priority 2020, published 2023).

Read-outs that look alike come from different tables or passages of the source.

The test system of experiment [1] is Phakopsora pachyrhizi. In words: Example B5: preventative activity against Phakopsora pachyrhizi (soybean rust), whole soybean plants sprayed, leaf disks inoculated. The format is in vivo. Conditions: for inhibition at 45 g/ha / inhibition at 90 g/ha / inhibition at 22.5 g/ha / inhibition at 225 g/ha / inhibition at 450 g/ha / inhibition at 2.25 g/ha / inhibition at 4.5 g/ha / inhibition at 18 g/ha: Phakopsora pachyrhizi, foliar. Here is the method: Whole soybean plants are treated with the recited active ingredients 4 weeks after planting. 1 day after spraying leaf disks are cut from the first trifoliate leaf. Five repetitions at each rate are conducted. The leaf disks are inoculated with Phakopsora pachyrhizi (Asian soybean rust) one day after treatment.
Evaluation of the leaf disks is conducted 11 to 14 days after inoculation and the activity is derived from the relation of the treated vs untreated, infested check (100=no disease, no damage to the leaf, 0=high infestation, leaf damaged heavily). The rates of the active ingredients used are given in the tables as g active ingredient (a.i.)/ha.

For experiment [2], the system named is Septoria tritici. In words: Example B3: mixtures, preventative activity against Septoria tritici (leaf blotch), liquid culture. The format is cell-based. To be noted: component B alone. An excerpt: (§1) This occurs whenever the action of an active ingredient combination is greater than the sum of the actions of the individual components. The action to be expected E for a given active ingredient combination obeys the so-called COLBY formula and can be calculated as follows (COLBY, S. R. “Calculating synergistic and antagonistic responses of herbicide combination”. Weeds, Vol. 15, pages 20-22; 1967):
(§2) If the action actually observed (O) is greater than the expected action (E), then the action of the combination is super-additive, i.e. there is a synergistic effect. In mathematical terms, synergism corresponds to a positive value for the difference of (O-E). In the case of purely complementary addition of activities (expected activity), said difference (O-E) is zero. A negative value of said difference (O-E) signals a loss of activity compared to the expected activity.
(§3) Conidia of the fungus from cryogenic storage were directly mixed into nutrient broth (PDB potato dextrose broth). A DMSO solution of the test compounds was placed into a microtiter plate (96-well format) and the nutrient broth containing the fungal spores was added to it.
(§4) Fungicidal activity was evaluated on a 100-0 scale (100=no disease growth; 0=well completely covered by mycelium).

In experiment [3] the test system is Glomerella lagenarium syn. Colletotrichum lagenarium. In words: Example B1: mixtures, preventative activity against Glomerella lagenarium syn. Colletotrichum lagenarium, liquid culture. The format is cell-based. Conditions: Colletotrichum orbiculare, component B alone, read-out: Activity (%) B.
Text: as §1, §2, §3, §4

The test system of experiment [4] is Septoria glycines. Description: Example B2: mixtures, preventative activity against Septoria glycines (brown spot), liquid culture. The format is cell-based. Conditions: component B alone.
Text: as §1, §2
Conidia of the fungus harvested from a fresh culture grown on artificial media, were directly mixed into nutrient broth (PDB potato dextrose broth). A DMSO solution of the test compounds was placed into a microtiter plate (96-well format) and the nutrient broth containing the fungal spores was added to it.
as §4

Where [5] appears, read: read-out: Observed Activity (% of untreated) against Phakopsora pachyrhizi.
Setting [6] is: read-out: Observed Activity (%) (% of untreated) against Phakopsora pachyrhizi.
Where [7] appears, read: Zymoseptoria tritici, 0.1 ppm, 100-0 scale, read-out: Activity (%) B.
Setting [8] is: Septoria glycines, 0.1 ppm, 100-0 scale, read-out: Activity (%) B.
The mark [9] stands for this setting: Septoria glycines, 0.3 ppm, 100-0 scale.
[10] abbreviates: active ingredient alone, 22.5 g/ha, read-out: Observed Activity (%) (% of untreated).
Setting [11] is: active ingredient alone, 45 g/ha, read-out: Observed Activity (%) (% of untreated).
[12] abbreviates: active ingredient alone, 90 g/ha, read-out: Observed Activity (%) (% of untreated).
The mark [13] stands for this setting: applied alone, 22.5 g/ha, read-out: Observed Activity (% of untreated) against Phakopsora pachyrhizi.
[14] abbreviates: applied alone, 45 g/ha, read-out: Observed Activity (% of untreated) against Phakopsora pachyrhizi.
Setting [15] is: applied alone, 90 g/ha, read-out: Observed Activity (% of untreated) against Phakopsora pachyrhizi.

On to `CO/C=C(/C(=O)OC)c1ccccc1Oc1cc(Oc2ccccc2C#N)ncn1` [azoxystrobin, reference compound], for which the “Observed Activity (%) (% of untreated)” value in experiment [1] (active ingredient alone, 2.25 g/ha) was determined as 0%; in experiment [1] (active ingredient alone, 4.5 g/ha) it was 15%; in experiment [1] (active ingredient alone, 9 g/ha), 23%; in experiment [1] (active ingredient alone, 18 g/ha), 9%. In addition, the “Observed Activity (% of untreated) against Phakopsora pachyrhizi” value (shortened to “Observed Activity (% of untreated)”) in experiment [1] (applied alone, 2.25 g/ha) came out at 0%; in experiment [1] (applied alone, 4.5 g/ha), 15%; in experiment [1] (applied alone, 9 g/ha), 23%; in experiment [1] (applied alone, 18 g/ha) it was 9%.
For the compound `O=C(O)CNCP(=O)(O)O` [Glyphosate], the inhibition at 45 g/ha in experiment [1] (setting [5]) and in experiment [1] (setting [6]) was 1% each time. Further, the inhibition at 90 g/ha in experiment [1] (setting [5]) and in experiment [1] (setting [6]) was 0% throughout.
For `CC(Cc1ccc(C(C)(C)C)cc1)CN1CCCCC1` (stereo not drawn) [fenpropidin], the inhibition at 0.1 ppm in experiment [2] (setting [7]) is 0%. In addition, the inhibition at 0.3 ppm in experiment [2] (Zymoseptoria tritici, 0.3 ppm, 100-0 scale, read-out: Activity (%) B) is 0%.
Take `COc1ccnc(C(=O)N[C@@H](C)C(=O)O[C@@H](C)[C@H](c2ccc(F)cc2C)C(C)C)c1OCOC(C)=O` [[(1S,2S)-2-(4-fluoro-2-methyl-phenyl)-1,3-dimethyl-butyl](2S)-2-[[3-(acetoxymethoxy)-4-methoxy-pyridine-2-carbonyl]amino]propanoate]: in experiment [3], the inhibition at 0.1 ppm worked out at 20% and the inhibition at 0.3 ppm is 70%.
As for `CC(C)c1ccc(Cl)cc1CN(C(=O)c1c(C(F)F)nn(C)c1F)C1CC1` [Isoflucypram], the “Observed Activity (% of untreated)” value in experiment [1] (applied alone, 2.25 g/ha) came to 2%; in experiment [1] (applied alone, 4.5 g/ha), 1%; in experiment [1] (applied alone, 9 g/ha), 0%.
In the case of `OC(Cn1cncn1)(c1ccc(F)cc1)c1ccccc1F` (stereo not drawn) [flutriafol], the entries for the “Activity (%) B” value in experiment [4] (0.1 ppm) and in experiment [4] (0.3 ppm) were 20% and 70%, respectively.
As for `CC(Cc1ccc(C(C)(C)C)cc1)CN1C[C@@H](C)O[C@@H](C)C1` (stereo partly drawn) [fenpropimorph], the inhibition at 0.1 ppm came out at 20% in experiment [4] (setting [8]) and 20% in experiment [4] (Septoria glycines, 0.1 ppm, read-out: Activity (%) B). In addition, the inhibition at 0.3 ppm in experiment [4] (Septoria glycines, 0.3 ppm) was 50%; in experiment [4] (setting [9]) it was 50%.
Regarding `O=C(Nc1ccccc1F)c1ccc(-c2noc(C(F)(F)F)n2)cc1` [N-(2-fluorophenyl)-4-[5-(trifluoromethyl)-1,2,4-oxadiazol-3-yl]benzamide], the inhibition at 10 ppm in experiment [4] (Septoria glycines) was 0%; in experiment [4] (Septoria glycines, 100-0 scale), 0%; in experiment [2] (Zymoseptoria tritici, 72 h, 10 ppm) it was 0%. Also, the inhibition at 20 ppm in experiment [4] (Septoria glycines) was 0%; in experiment [4] (Septoria glycines, 100-0 scale), 0%; in experiment [2] (Zymoseptoria tritici, 72 h, 20 ppm), 0%.
On to `S1SSSSSSS1` [sulphur], for which, in experiment [3], the inhibition at 0.1 ppm was found to be 0% and the inhibition at 0.3 ppm amounted to 0%.
`CC(C1CC1)C(O)(Cn1cncn1)c1ccc(Cl)cc1` (stereo not drawn) [cyproconazole, reference compound]: the inhibition at 0.1 ppm in experiment [4] (setting [8]) amounted to 50%; in experiment [2] (Zymoseptoria tritici, 72 h, 0.1 ppm, 72 hrs, 100=no disease growth, read-out: Activity (%) B), 20%; in experiment [2] (setting [7]), 20%. The inhibition at 0.3 ppm in experiment [4] (Septoria glycines, 0.3 ppm) is 70%; in experiment [4] (setting [9]), 70%; in experiment [2] (Zymoseptoria tritici, 72 h, 0.3 ppm, 72 hrs, read-out: Activity (%) B) it was 50%. Moreover, the inhibition at 22.5 g/ha in experiment [1] (setting [10]) and in experiment [1] (setting [13]) was 15% each time. Also, the inhibition at 45 g/ha in experiment [1] (setting [11]) and in experiment [1] (setting [14]) was 69% throughout. Further, the inhibition at 90 g/ha in experiment [1] (setting [12]) and in experiment [1] (setting [15]) was 84% throughout.
Regarding `CC(Cc1ccc(C(C)(C)C)cc1)CN1CCCCC1` (stereo not drawn) [Fenpropidin], the inhibition at 225 g/ha worked out at 72% in experiment [1] (applied alone, 225 g/ha, read-out: Observed Activity (% of untreated) against Phakopsora pachyrhizi) and 72% in experiment [1] (applied alone, 225 g/ha, read-out: Observed Activity (%) (% of untreated) against Phakopsora pachyrhizi). In addition, the inhibition at 450 g/ha in experiment [1] (applied alone, 450 g/ha, read-out: Observed Activity (% of untreated) against Phakopsora pachyrhizi) was 77%; in experiment [1] (applied alone, 450 g/ha, read-out: Observed Activity (%) (% of untreated) against Phakopsora pachyrhizi), 77%.
Turning to `CC(O)(Cn1cncn1)c1ccc(Oc2ccc(Cl)cc2)cc1C(F)(F)F` (stereo not drawn) [mefentrifluconazole, reference compound], in experiment [1] (applied alone, 22.5 g/ha), the “Observed Activity (% of untreated)” value is 1% and the “Observed Activity (%) (% of untreated) against Phakopsora pachyrhizi” value is 1%. Further, in experiment [1] (applied alone, 45 g/ha), the “Observed Activity (% of untreated)” value amounted to 20% and the “Observed Activity (%) (% of untreated) against Phakopsora pachyrhizi” value worked out at 20%.
For `CCC(=O)Oc1c(OC)ccnc1C(=O)N[C@@H](C)C(=O)O[C@@H](C)[C@@H](C)c1ccccc1C` [[(1S,2S)-1-methyl-2-(o-tolyl)propyl](2S)-2-[(4-methoxy-3-propanoyloxy-pyridine-2-carbonyl)amino]propanoate, reference compound], the inhibition at 0.03 ppm in experiment [4] (Septoria glycines, 0.03 ppm, 100-0 scale, read-out: Activity (%) B) turned out to be 0%; in experiment [2] (Zymoseptoria tritici, 72 h, 0.03 ppm, 72 hrs, read-out: Activity (%) B), 50%. In addition, the inhibition at 0.06 ppm in experiment [4] (Septoria glycines, 0.06 ppm, 100-0 scale) was 0%; in experiment [2] (Zymoseptoria tritici, 72 h, 0.06 ppm), 70%.
Mancozeb: the “Observed Activity (% of untreated)” value in experiment [1] (applied alone, 225 g/ha) stood at 20%; in experiment [1] (applied alone, 450 g/ha), 34%.
Regarding `CC1(C)N=C(c2cnc3ccccc3c2)c2ccccc2C1(F)F` [quinofumelin], the “Activity (%) B” value came out at 0% in experiment [2] (0.1 ppm, 100-0 scale) and 0% in experiment [2] (0.3 ppm, 100-0 scale).
Regarding `COC(=O)N(OC)c1ccccc1COc1ccn(-c2ccc(Cl)cc2)n1` [pyraclostrobin, reference compound], the inhibition at 2.25 g/ha in experiment [1] (active ingredient alone, 2.25 g/ha, read-out: Observed Activity (%) (% of untreated)) stood at 0%; in experiment [1] (applied alone, 2.25 g/ha, read-out: Observed Activity (% of untreated) against Phakopsora pachyrhizi) it was 0%. Besides, the inhibition at 4.5 g/ha in experiment [1] (active ingredient alone, 4.5 g/ha, read-out: Observed Activity (%) (% of untreated)) was found to be 0%; in experiment [1] (applied alone, 4.5 g/ha, read-out: Observed Activity (% of untreated) against Phakopsora pachyrhizi), 0%. Moreover, the inhibition at 18 g/ha stood at 13% in experiment [1] (active ingredient alone, 18 g/ha, read-out: Observed Activity (%) (% of untreated)) and 13% in experiment [1] (applied alone, 18 g/ha, read-out: Observed Activity (% of untreated) against Phakopsora pachyrhizi). In addition, in experiment [1] (applied alone, 9 g/ha), the “Observed Activity (% of untreated)” value is given as 1%.
In the case of `CC1COC(Cn2cncn2)(c2ccc(Oc3ccc(Cl)cc3)cc2Cl)O1` (stereo not drawn) [Difenoconazole], the inhibition at 22.5 g/ha in experiment [1] (setting [10]) and in experiment [1] (setting [13]) was 3% each time. Moreover, the inhibition at 45 g/ha in experiment [1] (setting [11]) and in experiment [1] (setting [14]) was 10% each time. Also, the inhibition at 90 g/ha in experiment [1] (setting [12]) and in experiment [1] (setting [15]) was 24% throughout.
As for `CC(C)C1C2CCC1c1c(NC(=O)c3cn(C)nc3C(F)F)cccc12` (stereo not drawn) [isopyrazam], the “Activity (%) B” value came out at 50% in experiment [2] (0.1 ppm, 100-0 scale); 50% in experiment [2] (0.1 ppm, 72 hrs, 100=no disease growth); 70% in experiment [2] (0.3 ppm, 100-0 scale); 70% in experiment [2] (0.3 ppm, 72 hrs).
